Results from PMC12746157, “Light-Regulated Agonists Spatiotemporally Activating the Vitamin D Receptor Mitigate Psoriasis-like Inflammation in Mice without Inducing Hypercalcemia” (ACS Central Science, 2025).
“Also recorded” adds a separate entry of the source.

What was measured:
[1] = test system: IL-23-induced psoriatic-like inflammation; assay: IL-23-induced mouse model of psoriasis (ear thickness); assay type: in vivo, C57BL/6N mice; details: days 2-4, i.p. PhotoVDRM 0.5 mg/kg
Procedure: Each mice was administered interlueukin 23 (IL-23) once a day for a total of 3 days by intradermal injection (i.d.) into one of the mouse ears. Contralateral ear i.d. injected with PBS was used as control. Subsequently, ear thickness was measured daily, by using a digital caliper, as indicative of psoriasis-course progression (Figure A).
(A) Temporal scheme for IL-23-induced mouse model of psoriasis. Animals were treated with IL-23 (i.d.) in the left ear during three consecutive days (days 1, 2 and 3). In addition, a contralateral control was performed consisting of PBS administration in the right ear. At day 2, 3, and 4 animals were previously intraperitoneally (i.p.) administered with vehicle (saline) and drugs (i.e., LSN2148936; 0.005 mg/kg and PhotoVDRM; 0.5 mg/kg). Both ears were irradiated with 420 or 520 nm light at day 2, 3, and 4 during 8 min. […] (C) Inflammatory ear response measurements. Mice ear thickness determination in animals administrated (ip) on days 2, 3, and 4 with vehicle, LSN2148936 or PhotoVDRM treated with 420 or 520 nm light. Each day, ear thickness was measured in millimeters and represented as percentage of ear thickness increase using the first measurement of PBS-administrated ear as control. Data is shown as mean ± SD, n = 5 mice per group. Statistical analysis between PhotoVDRM and vehicle. *P < 0.05 and **P < 0.01 Student’s t test.

[2] = Thermal relaxation and photoisomerization rates of PhotoVDRM in aqueous assay buffer; assay type: physicochemical; details: for photoisomerization rate (τ) trans to cis: 365 nm, aqueous buffer 0.6% DMSO
Procedure: The UV–vis absorbance spectra of all molecules were measured in the dark and after the application of light of different wavelengths ranging from 365 to 770 nm (Figure A and Figures S1–S3). […] Consequently, violet/UV light below 405 nm efficiently promoted photoisomerization, which produced a dramatic decrease in the π-π* band and a significant increase in the n-π* band at around 445 nm (Table ). […] The proportion of molecules at the PSS in trans isomer upon constant illumination with light at 525 nm and cis at 365 nm was in general above 50%, reaching a remarkable >99% for compound 11d (Table and Figures S4 and S5). […] The greater stability of the trans isomer was consistent with previous quantum mechanical and molecular mechanics predictions. Measuring the photoisomerization properties of compound PhotoVDRM allowed us to determine the photoisomerization quantum yields of the compound by solving a differential equation for photoisomerization. We used MATLAB to perform regression and arrive at the following photoisomerization quantum yields: ϕ365 nm (trans) = 0.0427, ϕ365 nm (cis) = 0.0501, ϕ470 nm (trans) = 0.1857, and ϕ470 nm (cis) = 0.2281 (Figure S9). […] A deeper photocharacterization of PhotoVDRM allowed us to measure the kinetics of photoconversion upon constant illumination with two wavelengths and three light intensities (Figure D and Figure S10). […] Indeed, with LED devices producing light at intensities as low as 0.05 mW/mm^2 we were able to transform trans to cis in around 15.5 s. This time was reduced to 6 and 2 s when the light intensity was increased to 0.15 and 0.75 mW/mm^2. […] Therefore, we proceeded to test the ability of the chemical library to activate the VDR under different light conditions.
2 Photochemical characterization of compound PhotoVDRM. (A) UV–vis absorption spectra of compound PhotoVDRM under different light conditions. (B) Half-lifetime estimation of compound PhotoVDRM, absorbance was measured at 365 nm. (C) Multiple cis/trans isomerization cycles (365/460 nm) show the stability of the compound over 6 cycles of light application. (D) Photoisomerization under constant illumination with light at 365 nm (violet shade) and 470 nm (blue shade). Light was applied with a CoolLED pe-4000 at 50% intensity that corresponded to 0.75 mW/mm^2 for the light at 365 nm and 0.56 mW/mm^2 for the light at 470 nm; 10% intensity corresponded to 0.15 mW/mm^2 for the light at 365 nm and 0.12 mW/mm^2 for the light at 470 nm; and 5% intensity corresponded to 0.06 mW/mm^2 for the light at 365 nm and 0.05 mW/mm^2 for the light at 470 nm. The photoisomerization rates (τ) using light at 365 nm were measured as 2, 6, and 15.5 s with 50%, 10% and 5% of intensity. […]

Cc1cc(OCC(O)C(C)(C)C)ccc1N=Nc1cccc(-c2ccc(C(=O)O)cc2)c1 (stereo not drawn) [Compound 11b]
IL-23-induced ear inflammation (ear thickness) ([1]; 420 nm light 8 min): significant reduction; also recorded: full antipsoriatic activity | IL-23-induced ear inflammation (ear thickness) ([1]; 520 nm light 8 min): only partially reduces | photoisomerization rate (τ) trans to cis ([2]; 10% intensity, 0.15 mW/mm^2, 25 °C): 6 s | photoisomerization rate (τ) trans to cis ([2]; 50% intensity, 0.75 mW/mm^2, 25 °C): 2 s | thermal relaxation ([2]; aqueous buffer used for pharmacological experiments (0.5% DMSO)): 3 h | thermal relaxation in aqueous buffer, times faster than in pure DMSO ([2]; buffer vs pure DMSO): ~7 times
